From patent US20240415914A1, “Water Dispersible Cannabinoid Compositions” (priority 2021, published 2024)

Assay: Stability of cannabinoid and Vitamin E components of Beverage 1 (AB White) stored at 8° C. and 21-25° C., LCMSMS over 570 days
Format: physicochemical
Settings: for Chemical stability over the entire period (result in words): AB White, 570 days; for Stability in AB White, 8° C. (content by LCMSMS): beverage stored at 8° C.; for Stability in AB White, 21-25° C. (content by LCMSMS): beverage stored at 21-25° C.
Method: The LCMSMS was calibrated for 0-1000 ng/ml cannabinoids with the same resin material used in the preparation of the concentrates. At each time period, 100 ml of beverage was diluted with 10 ml of methanol and injected into the LCMSMS for analysis.

In the case of `CCCCCc1cc(O)c2c(c1)OC(C)(C)[C@@H]1CCC(C)=C[C@@H]21` [D9 THC, delta-9-tetrahydrocannabinol, reference compound], the “Chemical stability over the entire period (result in words)” value (stored at 8° C.) is reported as “high degree of stability”, the “Chemical stability over the entire period (result in words)” value (stored at 21-25° C.) is reported as “high degree of stability” and the “Stability in AB White, 8° C. (content by LCMSMS)” value (day 0) is reported as 12.2 µg/mL. The “Stability in AB White, 8° C. (content by LCMSMS)” value (day 1) was 12.20 µg/mL, the “Stability in AB White, 8° C. (content by LCMSMS)” value (day 2) was 11.91 µg/mL and the “Stability in AB White, 8° C. (content by LCMSMS)” value (day 3) was 12.25 µg/mL. For the same molecule, the “Stability in AB White, 8° C. (content by LCMSMS)” value (day 5) was 12.11 µg/mL, the “Stability in AB White, 8° C. (content by LCMSMS)” value (day 8) was 11.83 µg/mL and the “Stability in AB White, 8° C. (content by LCMSMS)” value (day 9) was 12.14 µg/mL. The “Stability in AB White, 8° C. (content by LCMSMS)” value (day 10) was 12.07 µg/mL, the “Stability in AB White, 8° C. (content by LCMSMS)” value (day 11) was 11.83 µg/mL and the “Stability in AB White, 8° C. (content by LCMSMS)” value (day 12) was 11.88 µg/mL. For the same molecule, the “Stability in AB White, 8° C. (content by LCMSMS)” value (day 15) was 12.08 µg/mL, the “Stability in AB White, 8° C. (content by LCMSMS)” value (day 16) was 12.18 µg/mL and the “Stability in AB White, 8° C. (content by LCMSMS)” value (day 17) was 12.05 µg/mL. For the same molecule, the “Stability in AB White, 8° C. (content by LCMSMS)” value (day 18) was 12.00 µg/mL, the “Stability in AB White, 8° C. (content by LCMSMS)” value (day 19) was 12.11 µg/mL and the “Stability in AB White, 8° C. (content by LCMSMS)” value (day 22) was 11.97 µg/mL. The “Stability in AB White, 8° C. (content by LCMSMS)” value (day 23) was 12.03 µg/mL, the “Stability in AB White, 8° C. (content by LCMSMS)” value (day 24) was 11.87 µg/mL and the “Stability in AB White, 8° C. (content by LCMSMS)” value (day 25) was 11.99 µg/mL. For the same molecule, the “Stability in AB White, 8° C. (content by LCMSMS)” value (day 26) was 11.97 µg/mL, the “Stability in AB White, 8° C. (content by LCMSMS)” value (day 29) was 12.25 µg/mL and the “Stability in AB White, 8° C. (content by LCMSMS)” value (day 30) was 12.05 µg/mL. For the same molecule, the “Stability in AB White, 8° C. (content by LCMSMS)” value (day 60) was 11.77 µg/mL, the “Stability in AB White, 8° C. (content by LCMSMS)” value (day 90) was 11.92 µg/mL and the “Stability in AB White, 8° C. (content by LCMSMS)” value (day 120) was 11.79 µg/mL. The “Stability in AB White, 8° C. (content by LCMSMS)” value (day 150) was 12.07 µg/mL, the “Stability in AB White, 8° C. (content by LCMSMS)” value (day 180) was 11.66 µg/mL and the “Stability in AB White, 8° C. (content by LCMSMS)” value (day 210) was 11.79 µg/mL. For the same molecule, the “Stability in AB White, 8° C. (content by LCMSMS)” value (day 240) was 11.70 µg/mL, the “Stability in AB White, 8° C. (content by LCMSMS)” value (day 270) was 11.98 µg/mL and the “Stability in AB White, 8° C. (content by LCMSMS)” value (day 300) was 11.70 µg/mL. The “Stability in AB White, 8° C. (content by LCMSMS)” value (day 330) was 11.68 µg/mL, the “Stability in AB White, 8° C. (content by LCMSMS)” value (day 360) was 11.88 µg/mL and the “Stability in AB White, 8° C. (content by LCMSMS)” value (day 390) was 11.85 µg/mL. The “Stability in AB White, 8° C. (content by LCMSMS)” value (day 420) was 11.77 µg/mL, the “Stability in AB White, 8° C. (content by LCMSMS)” value (day 450) was 11.80 µg/mL and the “Stability in AB White, 8° C. (content by LCMSMS)” value (day 480) was 11.60 µg/mL. For the same molecule, the “Stability in AB White, 8° C. (content by LCMSMS)” value (day 510) was 11.33 µg/mL, the “Stability in AB White, 8° C. (content by LCMSMS)” value (day 540) was 11.27 µg/mL and the “Stability in AB White, 8° C. (content by LCMSMS)” value (day 570) was 11.21 µg/mL. For the same molecule, the “Stability in AB White, 21-25° C. (content by LCMSMS)” value (day 0) was 12.2 µg/mL, the “Stability in AB White, 21-25° C. (content by LCMSMS)” value (day 1) was 11.8 µg/mL and the “Stability in AB White, 21-25° C. (content by LCMSMS)” value (day 2) was 12.0 µg/mL. For the same molecule, the “Stability in AB White, 21-25° C. (content by LCMSMS)” value (day 3) was 11.9 µg/mL, the “Stability in AB White, 21-25° C. (content by LCMSMS)” value (day 5) was 12.1 µg/mL and the “Stability in AB White, 21-25° C. (content by LCMSMS)” value (day 8) was 12.3 µg/mL. The “Stability in AB White, 21-25° C. (content by LCMSMS)” value (day 9) was 11.8 µg/mL, the “Stability in AB White, 21-25° C. (content by LCMSMS)” value (day 10) was 11.7 µg/mL and the “Stability in AB White, 21-25° C. (content by LCMSMS)” value (day 11) was 12.1 µg/mL. For the same molecule, the “Stability in AB White, 21-25° C. (content by LCMSMS)” value (day 12) was 11.9 µg/mL, the “Stability in AB White, 21-25° C. (content by LCMSMS)” value (day 15) was 12.1 µg/mL and the “Stability in AB White, 21-25° C. (content by LCMSMS)” value (day 16) was 12.1 µg/mL. The “Stability in AB White, 21-25° C. (content by LCMSMS)” value (day 17) was 11.9 µg/mL, the “Stability in AB White, 21-25° C. (content by LCMSMS)” value (day 18) was 11.8 µg/mL and the “Stability in AB White, 21-25° C. (content by LCMSMS)” value (day 19) was 12.3 µg/mL. For the same molecule, the “Stability in AB White, 21-25° C. (content by LCMSMS)” value (day 22) was 11.9 µg/mL, the “Stability in AB White, 21-25° C. (content by LCMSMS)” value (day 23) was 12.0 µg/mL and the “Stability in AB White, 21-25° C. (content by LCMSMS)” value (day 24) was 12.1 µg/mL. For the same molecule, the “Stability in AB White, 21-25° C. (content by LCMSMS)” value (day 25) was 12.3 µg/mL, the “Stability in AB White, 21-25° C. (content by LCMSMS)” value (day 26) was 12.1 µg/mL and the “Stability in AB White, 21-25° C. (content by LCMSMS)” value (day 29) was 11.9 µg/mL. The “Stability in AB White, 21-25° C. (content by LCMSMS)” value (day 30) was 11.9 µg/mL, the “Stability in AB White, 21-25° C. (content by LCMSMS)” value (day 60) was 11.9 µg/mL and the “Stability in AB White, 21-25° C. (content by LCMSMS)” value (day 90) was 12.0 µg/mL. For the same molecule, the “Stability in AB White, 21-25° C. (content by LCMSMS)” value (day 120) was 11.7 µg/mL, the “Stability in AB White, 21-25° C. (content by LCMSMS)” value (day 150) was 11.7 µg/mL and the “Stability in AB White, 21-25° C. (content by LCMSMS)” value (day 180) was 11.9 µg/mL. For the same molecule, the “Stability in AB White, 21-25° C. (content by LCMSMS)” value (day 210) was 11.4 µg/mL, the “Stability in AB White, 21-25° C. (content by LCMSMS)” value (day 240) was 11.7 µg/mL and the “Stability in AB White, 21-25° C. (content by LCMSMS)” value (day 270) was 11.9 µg/mL. For the same molecule, the “Stability in AB White, 21-25° C. (content by LCMSMS)” value (day 300) was 12.0 µg/mL, the “Stability in AB White, 21-25° C. (content by LCMSMS)” value (day 330) was 11.4 µg/mL and the “Stability in AB White, 21-25° C. (content by LCMSMS)” value (day 360) was 11.7 µg/mL. For the same molecule, the “Stability in AB White, 21-25° C. (content by LCMSMS)” value (day 390) was 11.4 µg/mL, the “Stability in AB White, 21-25° C. (content by LCMSMS)” value (day 420) was 11.7 µg/mL and the “Stability in AB White, 21-25° C. (content by LCMSMS)” value (day 450) was 11.7 µg/mL. For the same molecule, the “Stability in AB White, 21-25° C. (content by LCMSMS)” value (day 480) was 11.2 µg/mL, the “Stability in AB White, 21-25° C. (content by LCMSMS)” value (day 510) was 11.2 µg/mL and the “Stability in AB White, 21-25° C. (content by LCMSMS)” value (day 540) was 11.2 µg/mL. For the same molecule, the “Stability in AB White, 21-25° C. (content by LCMSMS)” value (day 570) was 11.2 µg/mL.
